The supplement of paper PMC10307832

Experiments:
[1] = compound: NC(=O)c1ccc(N(C(N)=O)c2c(F)cccc2F)nc1-c1ccc(F)cc1F [VX-702] + COc1cc2c(Oc3ccc(NC(=O)C4(C(=O)Nc5ccc(F)cc5)CC4)cc3F)ccnc2cc1OCCCN1CCOCC1 [Foretinib] (partner 0.25 µM); experiment: relative viability (nuclei count vs DMSO), 5 days (fraction); higher = more cells survive
Procedure, shortened: (§1)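 Lung cancer cell lines in 1536-well plates got either a single drug or a fixed anchor-drug dose together with five library-drug doses (not always all listed) in √10 steps, by pin tool, on the day after seeding. Nuclei were counted after 5 days, and relative viability is the treated-to-vehicle ratio of nuclei counts. Values are medians of duplicate plates.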

[2] = compound: CC(C)(C)c1nc(-c2cccc(NS(=O)(=O)c3c(F)cccc3F)c2F)c(-c2ccnc(N)n2)s1 [Dabrafenib] + CC1(C)CCC(c2ccc(Cl)cc2)=C(CN2CCN(c3ccc(C(=O)NS(=O)(=O)c4ccc(N[C@H](CCN5CCOCC5)CSc5ccccc5)c(S(=O)(=O)C(F)(F)F)c4)cc3)CC2)C1 [Navitoclax] (partner 0.5 µM); experiment: as above
Procedure, shortened: as §1

| Cell Line | relative viability ([1]; first compound 0.02 µM) | relative viability ([1]; first compound 0.2 µM) | relative viability ([1]; first compound 0.6325 µM) | relative viability ([1]; first compound 2 µM) | relative viability ([2]; first compound 0.009487 µM) | relative viability ([2]; first compound 0.03 µM) | relative viability ([2]; first compound 0.09487 µM) | relative viability ([2]; first compound 0.3 µM) | relative viability ([2]; first compound 0.003 µM) |
| --- | --- | --- | --- | --- | --- | --- | --- | --- | --- |
| NCI-H727 | 0.936 | 0.806 | 0.824 | 0.813 | 0.608 | 0.543 | 0.545 | 0.825 |  |
| NCI-H838 | 1.02 | 1.01 | 1.13 | 1.2 | 1.29 | 1.13 | 1.11 | 1.28 | 1.22 |
| NCI-H1299 | 1.15 | 1.14 | 1.15 | 1.22 | 1.02 | 1.06 | 1.01 | 1.01 | 0.997 |
| NCI-H1355 | 0.931 | 1.01 | 0.923 | 1.01 | 1.01 | 0.894 |  | 1.07 |  |
| NCI-H1395 | 0.986 | 1.03 | 0.968 | 1.12 | 1.18 | 1.09 | 1.01 | 0.902 |  |
| NCI-H1437 | 1.31 | 1.3 | 1.35 | 1.41 | 1.02 | 1.14 | 1.07 | 1.1 | 1.14 |
| NCI-H1563 | 1.04 | 0.914 | 1 | 0.822 |  |  |  |  |  |
| NCI-H1623 | 0.819 | 0.81 | 0.835 | 0.744 |  |  |  |  |  |
| NCI-H1650 | 1.04 | 1.17 | 1.02 | 1.29 | 1.44 | 1.21 | 1.35 | 1.42 | 1.25 |
| NCI-H1651 | 0.814 | 0.794 | 0.824 | 0.803 | 1.03 | 0.997 | 1.01 | 1.03 | 1.15 |
| NCI-H1666 | 0.992 |  | 1.02 | 1.06 |  | 1.1 | 0.863 | 0.998 | 0.929 |
| NCI-H1703 | 0.32 | 0.367 | 0.325 | 0.395 | 1.41 | 1.6 | 0.951 | 1.09 | 1.33 |
| NCI-H1734 | 0.791 | 0.729 | 0.704 | 0.813 | 0.835 | 0.703 | 0.766 | 0.85 |  |
| NCI-H1755 | 0.93 | 0.952 | 0.807 | 0.944 | 0.938 | 0.75 | 0.964 | 0.997 | 0.949 |
| NCI-H1792 |  |  |  |  | 0.61 | 0.608 | 0.568 | 0.557 |  |
| NCI-H1793 | 0.671 | 0.705 | 0.703 | 0.719 | 0.599 | 0.306 | 0.445 | 0.669 | 0.463 |
| NCI-H1915 | 1.1 | 1.06 | 1.06 | 1.17 | 0.768 | 0.733 | 0.732 | 0.746 | 0.777 |
| NCI-H1944 | 0.812 | 0.821 | 0.798 | 0.71 | 1.03 | 0.971 | 0.968 | 0.899 | 0.954 |
| NCI-H1975 | 0.969 | 0.915 | 0.943 | 1.09 | 1.11 | 0.954 | 1 | 1.18 | 1.2 |
| NCI-H1993 | 0.717 | 0.773 | 0.754 | 0.693 | 1.04 | 0.902 | 1.08 | 1.17 | 0.834 |
